What was measured:
[1] = Example 20: DIO mice, daily s.c. dosing; assay type: in vivo
GLP-1 receptor [2] = target: T1, GLP-1 receptor (Homo sapiens, UniProt P43220); experiment: GLP-1 binding, [I125]-GLP-1 SPA with receptor membrane extracts; settings: read-out: GLP-1 IC50, Example 22, GLP-1 receptor cell membrane extracts
T1 construct: expressed in transfected cells; host or cells: HEK293

GLP-1 receptor [3] = target: T1, GLP-1 receptor; experiment: GLP-1 activity (cAMP induction), CRE-luciferase reporter assay in HEK293 cells; assay type: cell-based; settings: read-out: GLP-1 EC50; Example 22; HEK293 cells co-transfected with GLP-1 receptor and CRE-luciferase
ERα [4] = target: T2, ERα (Homo sapiens, UniProt P03372); settings: read-out: ERα IC50; purified ERα, [I125]-estradiol
ERα [5] = target: T2, ERα; assay type: cell-based; design: T47D cells transfected with the luciferase gene fused to the estrogen response element (ERE); endogenous in cells; host or cells: T47D; settings: T47D cells, ERE-luciferase
[6] = Stability analysis in human plasma (estrogen release); assay type: in vitro ADME; settings: 1 mg/mL, 100% human plasma, pH 7.4, 37° C.
[7] = solubility in aqueous solution; assay type: physicochemical
glucagon receptor = target: T3, glucagon receptor (Homo sapiens, UniProt P47871); experiment: glucagon antagonist activity, reduction of glucagon-induced cAMP production in an in vitro assay; assay type: cell-based; settings: PLA at position 6 versus positions 4 and 5
T3 construct: expressed in transfected cells; host or cells: HEK293

GLP-1 receptor [8] = target: T1, GLP-1 receptor; experiment: GLP-1 receptor activation, cAMP induction in HEK293 cells over-expressing the receptor (luciferase reporter); assay type: cell-based

T1 sequence (P43220 24-463, species assumed): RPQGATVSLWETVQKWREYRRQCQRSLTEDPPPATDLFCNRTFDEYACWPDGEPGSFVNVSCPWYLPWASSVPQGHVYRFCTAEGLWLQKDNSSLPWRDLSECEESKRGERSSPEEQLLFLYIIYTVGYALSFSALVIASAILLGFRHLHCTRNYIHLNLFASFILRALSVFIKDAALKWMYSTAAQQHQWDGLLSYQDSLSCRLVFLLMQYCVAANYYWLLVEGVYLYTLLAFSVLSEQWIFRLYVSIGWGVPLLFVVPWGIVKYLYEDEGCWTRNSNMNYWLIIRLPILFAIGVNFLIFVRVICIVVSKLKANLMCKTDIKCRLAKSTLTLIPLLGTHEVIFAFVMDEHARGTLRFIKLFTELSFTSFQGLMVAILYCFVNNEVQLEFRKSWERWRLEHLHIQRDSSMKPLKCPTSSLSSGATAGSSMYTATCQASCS
T2 sequence (P03372 whole entry, the tested form may be a part): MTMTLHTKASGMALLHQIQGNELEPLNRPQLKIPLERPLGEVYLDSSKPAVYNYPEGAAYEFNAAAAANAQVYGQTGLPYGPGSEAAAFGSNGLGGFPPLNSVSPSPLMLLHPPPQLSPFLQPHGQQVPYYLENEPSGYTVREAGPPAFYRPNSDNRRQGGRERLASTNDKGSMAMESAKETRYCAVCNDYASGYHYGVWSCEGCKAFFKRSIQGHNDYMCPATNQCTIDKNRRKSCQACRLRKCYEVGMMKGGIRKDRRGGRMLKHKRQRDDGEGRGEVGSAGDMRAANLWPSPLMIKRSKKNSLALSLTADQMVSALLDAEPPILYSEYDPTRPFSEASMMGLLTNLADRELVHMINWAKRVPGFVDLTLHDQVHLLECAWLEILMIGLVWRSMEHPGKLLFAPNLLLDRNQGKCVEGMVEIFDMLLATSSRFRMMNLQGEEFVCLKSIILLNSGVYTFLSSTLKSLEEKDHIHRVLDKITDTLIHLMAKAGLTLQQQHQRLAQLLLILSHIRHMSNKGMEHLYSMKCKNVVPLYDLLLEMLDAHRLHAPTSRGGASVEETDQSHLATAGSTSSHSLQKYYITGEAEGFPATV
T3 sequence (P47871 26-477): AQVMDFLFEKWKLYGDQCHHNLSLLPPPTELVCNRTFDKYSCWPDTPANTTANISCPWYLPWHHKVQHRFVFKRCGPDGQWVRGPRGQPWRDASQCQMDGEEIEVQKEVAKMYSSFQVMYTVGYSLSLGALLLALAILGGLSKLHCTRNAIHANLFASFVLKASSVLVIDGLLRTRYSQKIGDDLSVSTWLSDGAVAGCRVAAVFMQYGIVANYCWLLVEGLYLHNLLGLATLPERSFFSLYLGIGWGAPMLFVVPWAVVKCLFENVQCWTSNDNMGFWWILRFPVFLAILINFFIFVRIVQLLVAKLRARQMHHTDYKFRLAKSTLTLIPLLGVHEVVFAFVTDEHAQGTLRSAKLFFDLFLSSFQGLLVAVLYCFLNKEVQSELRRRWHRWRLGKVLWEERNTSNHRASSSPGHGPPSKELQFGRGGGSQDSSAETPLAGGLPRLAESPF

CC[C@H](C)[C@H](NC(=O)[C@H](Cc1ccccc1)NC(=O)[C@H](CCC(=O)O)NC(=O)[C@H](CCCCN)NC(=O)[C@H](C)NC(=O)[C@H](C)NC(=O)[C@H](CCC(N)=O)NC(=O)[C@H](CCC(=O)O)NC(=O)[C@H](CCC(=O)O)NC(=O)[C@H](CC(C)C)NC(=O)[C@H](Cc1ccc(O)cc1)NC(=O)[C@H](CO)NC(=O)[C@H](CO)NC(=O)[C@@H](NC(=O)[C@H](CC(=O)O)NC(=O)[C@H](CO)NC(=O)[C@@H](NC(=O)[C@H](Cc1ccccc1)NC(=O)[C@@H](NC(=O)CNC(=O)[C@H](CCC(=O)O)NC(=O)C(C)(C)NC(=O)[C@@H](N)Cc1c[nH]cn1)[C@@H](C)O)[C@@H](C)O)C(C)C)C(=O)N[C@@H](C)C(=O)N[C@@H](Cc1c[nH]c2ccccc12)C(=O)N[C@@H](CC(C)C)C(=O)N[C@H](C(=O)N[C@@H](CCCCN)C(=O)NCC(=O)NCC(=O)N1CCC[C@H]1C(=O)N[C@@H](CO)C(=O)N[C@@H](CO)C(=O)NCC(=O)N[C@@H](C)C(=O)N1CCC[C@H]1C(=O)N1CCC[C@H]1C(=O)N1CCC[C@H]1C(=O)N[C@@H](CO)C(=O)N[C@@H](CCCCNC(=O)CCC(=O)Oc1ccc2c(c1)CC[C@@H]1[C@@H]2CC[C@]2(C)[C@@H](OC(C)=O)CC[C@@H]12)C(N)=O)C(C)C [GLP-1/Estrogen(3-ester)]
fat mass ([1]; FIG. 9b): least amount of fat mass
change in body weight ([1]; s.c. once per day, after 7 days): greatest decrease in body weight
IC50 (GLP-1 receptor [2]): 0.627 ± 0.046 nM
EC50 (GLP-1 receptor [3]): 0.014 ± 0.001 nM
IC50 (ERα [4]): 198 ± 16.8 nM
EC50 (ERα [5]): 0.013 ± 0.001 nM

CC[C@H](C)[C@H](NC(=O)[C@H](Cc1ccccc1)NC(=O)[C@H](CCC(=O)O)NC(=O)[C@H](CCCCN)NC(=O)[C@H](C)NC(=O)[C@H](C)NC(=O)[C@H](CCC(N)=O)NC(=O)[C@H](CCC(=O)O)NC(=O)[C@H](CCC(=O)O)NC(=O)[C@H](CC(C)C)NC(=O)[C@H](Cc1ccc(O)cc1)NC(=O)[C@H](CO)NC(=O)[C@H](CO)NC(=O)[C@@H](NC(=O)[C@H](CC(=O)O)NC(=O)[C@H](CO)NC(=O)[C@@H](NC(=O)[C@H](Cc1ccccc1)NC(=O)[C@@H](NC(=O)CNC(=O)[C@H](CCC(=O)O)NC(=O)C(C)(C)NC(=O)[C@@H](N)Cc1c[nH]cn1)[C@@H](C)O)[C@@H](C)O)C(C)C)C(=O)N[C@@H](C)C(=O)N[C@@H](Cc1c[nH]c2ccccc12)C(=O)N[C@@H](CC(C)C)C(=O)N[C@H](C(=O)N[C@@H](CCCCN)C(=O)NCC(=O)NCC(=O)N1CCC[C@H]1C(=O)N[C@@H](CO)C(=O)N[C@@H](CO)C(=O)NCC(=O)N[C@@H](C)C(=O)N1CCC[C@H]1C(=O)N1CCC[C@H]1C(=O)N1CCC[C@H]1C(=O)N[C@@H](CO)C(=O)N[C@@H](CCCCNC(=O)COc1ccc2c(c1)CC[C@@H]1[C@@H]2CC[C@]2(C)[C@@H](O)CC[C@@H]12)C(N)=O)C(C)C [GLP-1/Estrogen(3-ether)]
estrogen release in plasma [6]: no estrogen release over 72 hours

CSCC[C@H](NC(=O)[C@H](CC(C)C)NC(=O)[C@H](Cc1c[nH]c2ccccc12)NC(=O)[C@H](CCC(N)=O)NC(=O)[C@@H](NC(=O)[C@H](Cc1ccccc1)NC(=O)[C@H](CC(=O)O)NC(=O)[C@H](CCC(N)=O)NC(=O)[C@H](C)NC(=O)[C@H](CCCN=C(N)N)NC(=O)[C@H](CCCN=C(N)N)NC(=O)[C@H](CO)NC(=O)[C@H](CC(=O)O)NC(=O)[C@H](CC(C)C)NC(=O)[C@H](Cc1ccc(O)cc1)NC(=O)[C@H](CCCCN)NC(=O)[C@H](CO)NC(=O)[C@H](Cc1ccc(O)cc1)NC(=O)[C@H](CC(=O)O)NC(=O)[C@H](CO)NC(=O)[C@@H](NC(=O)[C@H](Cc1ccccc1)NC(=O)[C@@H](NC(=O)CNC(=O)[C@H](CCC(N)=O)NC(=O)[C@H](CO)NC(=O)[C@@H](N)Cc1c[nH]cn1)[C@@H](C)O)[C@@H](C)O)C(C)C)C(=O)N[C@@H](CC(N)=O)C(=O)N[C@H](C(=O)O)[C@@H](C)O [Glucagon]
solubility in aqueous solution [7]: poor solubility in aqueous solution, particularly at physiological pH

PLA6 analog: glucagon peptide, first 5 amino acids removed from the N-terminus, remaining N-terminal amino group replaced with a hydroxyl group
glucagon antagonist potency (glucagon receptor): appreciably more potent antagonist than glucagon analogs having a slightly extended N-terminus

SEQ ID NO: 22: glucagon analog in which the native glutamine at position 3 is substituted with glutamic acid
selectivity for the GLP-1 receptor over the glucagon receptor (GLP-1 receptor [8]): approximately a tenfold selectivity for the GLP-1 receptor

Source: patent US9783592B2 (priority 2010, dated 2017)
